Reference: patent publication US10906909B2, “Treatment of cognitive and mood symptoms in neurodegenerative and neuropsychiatric disorders with ALPHA5-containing GABAA receptor agonists” (UWM Research Foundation, Inc., priority 2016, dated 2021)
“Also recorded” adds a separate entry of the source.

Key:
[1] = Pharmacokinetics in mice (plasma, liver, brain); details: for concentration at 20 min: C57/BL6, mouse, ip, 10 mg/kg
[2] = system: Female Swiss Webster mice; experiment: Rotarod sensorimotor / locomotor coordination; type: in vivo, mouse; details: 40 mg/kg oral gavage; 15 rpm, 3 min; 10, 30, 60 min after dosing
18 months-old mice = experiment: Y-maze alternation task, old mice; type: in vivo, mouse; details: 5 mg/kg i.p. 30 min before testing
Description: C57/B16 male mice males were ordered from Jackson Laboratories at 10 months-old and were kept in normal housing conditions (12 h light ON cycle starting at 7 am/water and food ad libitum) until they reached the age of 18 months. A younger cohort of 8 week old animals was used as controls for the experiment. Before testing animals were handled to reduce the anxiety-like response toward the experimenter. Normal aging induced-working memory deficits were assessed using the Y-maze test as described below.
Mice were first habituated to the Y-maze apparatus and distal cues during 2 consecutive days over a 10 min free exploration session (one session per day). The next day, animals performed a training session consisting in seven successive trials separated by a 30 s inter-trial interval (ITI); during this training session, mice were familiarized with the experimental procedure (opening and closing of the doors and confinement into the goal arms). […] Then, the door was opened and the mouse was allowed to enter freely one of the two goal arms; the chosen arm was closed and the choice was recorded. […]
The same general procedure used in the training session was implemented 24 h later, except that the ITI was lengthened to 90 s. […] The mean alternation rate was calculated and was expressed in percentage (number of alternation done by the animal/total number of alternation possible×100)±SEM. […]

rats = experiment: Social novelty discrimination (SND); type: in vivo, rat; details: 10 mg/kg
Description: The SND test compares the social investigation times of an adult rat with a familiar and a novel juvenile rat. Testing consisted of two consecutive juvenile presentations periods to an adult subject: period 1 (P1) and period 2 (P2). At the beginning of P1, one juvenile was placed into the adult home cage and the time spent by the adult investigating the juvenile (anogenital sniffing, licking, close pursuing and pawing) was recorded manually for 5 min. During P2, the same juvenile and a second, novel juvenile were placed in the cage together with the adult, and the times spent by the adult investigating each juvenile were measured independently for 3 min. A different pair of juvenile rats was presented to each adult tested. Manual scoring was conducted in a blinded manner. SND was deliberately impaired in control rats by the parametric manipulation applied, as there was 30 min delay between P1 and P2, and their SND was expected to be low. The influence of MP-III-022 (1, 2.5 or 10 mg/kg) on the thus induced impairment in SND was examined. There were five groups of rats which received one of the following treatments 20 min before P1: solvent, 1.5 mg/kg diazepam and 1, 2.5 and 10 mg/kg MP-III-022. The amount of time investigating familiar (Tf) and novel (Tn) juvenile during P2 was manually scored, and discrimination indexes (Tn−Tf/Tn+Tf) was calculated. Total exploration time during P1 and P2 was also manually recorded.

[3] = Wistar rats, Stamenic et al. 2016, cited from earlier work

C#Cc1ccc2c(c1)C(c1ccccc1F)=N[C@@H](C)c1c(C(=O)N(C)C)ncn1-2 [GL-I-54, (S)-8-ethynyl-6-(2-fluorophenyl)-N,N,4-trimethyl-4H-benzo[f]imidazo[1,5-a][1,4]diazepine-3-carboxamide]
molar concentration range reached in mouse brain tissue ([1]; i.p. dosing at 3 mg/kg): high submicromolar to low micromolar values | sensorimotor impairment on rotarod (time of fall) [2]: most severe motor impairment

C#Cc1ccc2c(c1)C(c1ccccc1F)=N[C@H](C)c1c(C(=O)N(C)C)ncn1-2 [GL-II-73, (R)-8-ethynyl-6-(2-fluorophenyl)-N,N,4-trimethyl-4H-benzo[f]imidazo[1,5-a][1,4]diazepine-3-carboxam]
molar concentration range reached in mouse brain tissue ([1]; 10 mg/kg dose i.p.): micromolar range | effect on age-induced working memory impairment (percent alternation rate, Y-maze) (18 months-old mice): significant reversal of age-induced impairment in working memory; also recorded: significant pro-cognitive effect | sensorimotor impairment on rotarod (time of fall) [2]: no sensorimotor impairment

C#Cc1ccc2c(c1)C(c1ccccc1F)=N[C@H](C)c1c(C(=O)NCC)ncn1-2 [GL-II-74, (R)—N-ethyl-8-ethynyl-6-(2-fluorophenyl)-4-methyl-4H-benzo[f]imidazo[1,5-a][1,4]diazepine-3-carboxamide]
molar concentration range reached in mouse brain tissue ([1]; 10 mg/kg dose i.p.): micromolar range | sensorimotor impairment on rotarod (time of fall) [2]: no sensorimotor impairment

C#Cc1ccc2c(c1)C(c1ccccc1F)=N[C@H](C)c1c(C(=O)NC3CC3)ncn1-2 [GL-II-75, (R)—N-cyclopropyl-8-ethynyl-6-(2-fluorophenyl)-4-methyl-4H-benzo[f]imidazo[1,5-a][1,4]diazepine-3-carboxamide]
molar concentration range reached in mouse brain tissue ([1]; 10 mg/kg dose i.p.): micromolar range | effect on age-induced working memory impairment (percent alternation rate, Y-maze) (18 months-old mice): significant reversal of age-induced impairment in working memory; also recorded: significant pro-cognitive effect

C#Cc1ccc2c(c1)C(c1ccccc1F)=N[C@H](C)c1c(C(=O)N3CCCC3)ncn1-2 [GL-II-76, (R)-(8-ethynyl-6-(2-fluorophenyl)-4-methyl-4H-benzo[f]imidazo[1,5-a][1,4]diazepin-3-yl)(pyrrolidin-1-yl)methanone]
concentration at 20 min ([1]; brain): 204 ± 101 ng/g | concentration at 20 min ([1]; liver): 4360 ng/g | concentration at 20 min ([1]; plasma): 605 ± 198 ng/mL | brain penetrance ([1]; mice and rats): brain-penetrant at the exception of GI-II-76 | brain concentrations, suitability for CNS-active drug ([1]; pilot cassette study, mice and rats): suboptimal | sensorimotor impairment on rotarod (time of fall) [2]: no sensorimotor impairment

C#Cc1ccc2c(c1)C(c1ccccc1F)=N[C@H](C)c1c(C(=O)NC)ncn1-2 [MP-III-022]
discrimination index (social novelty discrimination) (rats; 20 min before P1, one-sample t-test vs zero): significant differences from zero | time exploring the familiar and the novel juvenile rat during P2 (rats; 20 min before P1, paired t-test): spent significantly more time in exploring the new rat | terminal elimination half-life t1/2, brain ([3]; i.p. single dose): 70 min | terminal elimination half-life t1/2, plasma ([3]; i.p. single dose): 35 min | systemic and brain exposure ([3]; single i.p. dose): excellent systemic and brain exposure
